This note sets out measurements from PubChem BioAssay (NCI).

Some test systems named below: M19-MEL melanoma; KM20L2 colon; DLD-1 colon; DMS 114 small cell lung; XF 498 CNS; LXFL 529 NSCLC; HOP-18 NSCLC; RXF-631 renal; MDA-N.
Holding throughout (assay): NCI-60 cell line screen, 48 h

The structures appear in SMILES notation. Values joined by “and” are separate entries in the source; they are usually repeats but may differ in a detail not shown here. Equal entries are not always repeated.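 Test compounds were applied to cells in 96-well plates for 48 hours at 5 doses. GI50 = concentration required for 50% inhibition of growth. TGI denotes the concentration required for complete inhibition of growth.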

With `NNC(=O)N/N=C1\CNC(=O)C(=O)C1c1nc2ccccc2s1` (stereo not given), the TGI with M19-MEL melanoma, in the test with KM20L2 colon, in the test on DLD-1 colon, in the test with DMS 114 small cell lung, in the test on XF 498 CNS and with LXFL 529 NSCLC was above 100 µM throughout.

In the case of `Cc1c(C)c2ccc(OC(C)C(=O)O)cc2oc1=O` (stereo not given), the TGI in the test on M19-MEL melanoma is above 100 µM; in the test on KM20L2 colon it was above 100 µM; in the test on DLD-1 colon, above 100 µM; in the test on DMS 114 small cell lung it was above 100 µM; with HOP-18 NSCLC, above 100 µM; in the test with XF 498 CNS, 99 µM. The TGI in the test with LXFL 529 NSCLC and in the test with RXF-631 renal was above 100 µM throughout.

In the case of `C/C(CC(=O)Nc1cccc(Cl)c1C)=N\N=C(N)N`, the TGI in the test on M19-MEL melanoma, in the test with KM20L2 colon, with DLD-1 colon, in the test with DMS 114 small cell lung, in the test with HOP-18 NSCLC and in the test with XF 498 CNS was above 100 µM each time. The compound further gave a TGI in the test with LXFL 529 NSCLC above 100 µM.

As to `O=c1c2ccccc2n2cnc3ccc(NCCNCCO)c1c32`, the TGI came to 12.9 µM in the test on M19-MEL melanoma; 12.1 µM in the test with KM20L2 colon; 16.9 µM in the test with DLD-1 colon; 12.2 µM in the test on DMS 114 small cell lung; 26.8 µM in the test with HOP-18 NSCLC; 16.4 µM with LXFL 529 NSCLC. For the same compound, the TGI came out at 9.61 µM in the test with MDA-N and 8.68 µM with RXF-631 renal.

As for `CC(C)=CC(=O)CC(=O)C(=O)NCCNC(=O)C(=O)CC(=O)C=C(C)C`, the TGI in the test on M19-MEL melanoma, in the test on KM20L2 colon, with DLD-1 colon, with DMS 114 small cell lung, in the test with HOP-18 NSCLC and with XF 498 CNS was above 50 µM throughout. Moreover, the TGI in the test on LXFL 529 NSCLC is above 50 µM.

Consider `O=C(O)Cn1ccc(=O)c2c([N+](=O)[O-])cccc21`, for which the TGI with MDA-N is above 100 µM.

For the compound `CCOc1ccc(/C=C2/C(=O)N=C(N)N=C2N)cc1OCC`, the TGI with M19-MEL melanoma, in the test on KM20L2 colon, in the test with DMS 114 small cell lung, with HOP-18 NSCLC, in the test on XF 498 CNS and in the test on LXFL 529 NSCLC was above 100 µM each time. In the test on RXF-631 renal, this compound yielded a TGI above 100 µM.

`O=c1[nH]c(=O)n(C2CC(O)C(O)C(CO)O2)cc1F` (stereo not given): the TGI with M19-MEL melanoma, in the test with KM20L2 colon, with DLD-1 colon, with DMS 114 small cell lung, in the test on HOP-18 NSCLC and with XF 498 CNS was above 100 µM in each case. Also, the TGI with LXFL 529 NSCLC and with RXF-631 renal was above 100 µM in each case.

With `O=C(Nc1ccc(Cl)c(Cl)c1)C1C(=O)N(c2ccc(Cl)c(Cl)c2)C(=O)/C1=N\O` (stereo not given), the TGI with M19-MEL melanoma is above 100 µM; in the test on KM20L2 colon, above 100 µM; in the test on DLD-1 colon, above 100 µM; with DMS 114 small cell lung, 83.7 µM; in the test on HOP-18 NSCLC, above 100 µM; in the test with LXFL 529 NSCLC, above 100 µM.

Compound `NCC(Cc1ccccc1)P(=O)(O)O` (stereo not given) registered a TGI in the test on MDA-N above 100 µM.

With `C1=C(c2ccccc2)C(OC2Oc3ccccc3C=C2c2ccccc2)Oc2ccccc21` (stereo not given), the TGI in the test with M19-MEL melanoma, with KM20L2 colon, with DLD-1 colon, with DMS 114 small cell lung, in the test with HOP-18 NSCLC and with XF 498 CNS was above 100 µM in each case. Besides, the TGI in the test with LXFL 529 NSCLC and in the test with RXF-631 renal was above 100 µM in each case.

For the compound `CC1(C)OC2OC(COC(=O)C(c3ccccc3)c3ccccc3)C3OC(C)(C)OC3C2O1` (stereo not given), the TGI in the test on M19-MEL melanoma was above 100 µM; in the test on KM20L2 colon it was above 100 µM; with DLD-1 colon, above 100 µM; in the test with DMS 114 small cell lung it was above 100 µM; in the test with XF 498 CNS, 99.7 µM; with LXFL 529 NSCLC, above 100 µM. Moreover, the GI50 with LXFL 529 NSCLC is above 100 µM.

`N=C(N)c1ccc(OCCCCCOc2ccc(C(=N)N)cc2)cc1`: in the test on MDA-N, the TGI was 26.5 µM and 36 µM.

With `O=C(CCC(=O)C1Cc2ccccc2C1=O)Nc1cccc(C(F)(F)F)c1` (stereo not given), the TGI in the test with M19-MEL melanoma, with KM20L2 colon, in the test on DLD-1 colon, in the test with HOP-18 NSCLC, with LXFL 529 NSCLC and in the test with RXF-631 renal was above 100 µM in each case.

Regarding `Cn1cc(NC(=O)c2cc(NC(=O)CCCCCCCC(=O)Nc3cc(C(=O)Nc4cc(C(=O)NCCC(=N)N)n(C)c4)n(C)c3)cn2C)cc1C(=O)NCCC(=N)N`, the TGI was 16.7 µM with M19-MEL melanoma; above 100 µM with KM20L2 colon; above 100 µM in the test with DLD-1 colon; 11.9 µM in the test on DMS 114 small cell lung; above 100 µM with HOP-18 NSCLC; 56.1 µM with XF 498 CNS. In addition, the figures for the TGI in the test on LXFL 529 NSCLC and with RXF-631 renal were 28.8 µM and above 100 µM, respectively.

Consider `C1CCN2CC3CONC3C2C1` (stereo not given), for which the TGI in the test with M19-MEL melanoma, in the test on KM20L2 colon, in the test on DLD-1 colon, in the test with DMS 114 small cell lung, in the test on XF 498 CNS and with LXFL 529 NSCLC was above 100 µM in each case.

For `Nc1c(-c2nc3ccccc3s2)[n+]([O-])c2ccccc2[n+]1[O-]`, the TGI is 84.2 µM with M19-MEL melanoma; above 100 µM in the test on KM20L2 colon; above 100 µM in the test on DLD-1 colon; above 100 µM in the test with DMS 114 small cell lung; 86.2 µM in the test with HOP-18 NSCLC; 77.6 µM with LXFL 529 NSCLC.

With `O=C1c2ccoc2C(=O)c2oc(=O)ccc21`, the TGI in the test on M19-MEL melanoma is 2.9 µM; with KM20L2 colon, above 65.4 µM; in the test with DLD-1 colon, 36.4 µM; with DMS 114 small cell lung, 4.42 µM; in the test with HOP-18 NSCLC it was 36 µM; with XF 498 CNS, 40 µM. Further, the TGI in the test with LXFL 529 NSCLC worked out at 15.2 µM.

Consider `Nc1c(C(=O)Nc2ccccc2O)[n+]([O-])c2ccccc2[n+]1[O-]`, for which the TGI in the test with M19-MEL melanoma was 27.7 µM; in the test with KM20L2 colon, above 100 µM; in the test on DLD-1 colon, above 100 µM; with DMS 114 small cell lung it was 63.5 µM; in the test on HOP-18 NSCLC, above 100 µM; in the test on LXFL 529 NSCLC it was above 100 µM. The compound further registered a TGI in the test on RXF-631 renal above 100 µM.
